ChEMBL document CHEMBL1154213, “Composition of the fresh leaves and stems of Melissa officinalis and evaluation of skin irritation in a reconstituted human epidermis model” (J Nat Prod, 2009)
≈ marks a conversion by molar mass, not a printed value. Calls of active or inactive are those of the source. The calls are words filed in the database; no cut-off is given here.

How the values were obtained:
[1] = system: Radical scavenging activity; test: Antioxidant activity assessed as DPPH radical scavenging activity; format: functional
[2] = system: Pseudomonas aeruginosa; test: Antimicrobial activity against Pseudomonas aeruginosa ATCC 9027 after 48 hrs by broth dilution method; format: functional; conditions: ATCC 9027, 48 h
[3] = system: Candida albicans; test: Antimicrobial activity against Candida albicans ATCC 10231 after 24 hrs by broth dilution method; format: functional; conditions: ATCC 10231, 24 h
[4] = system: Pseudomonas aeruginosa; test: Antimicrobial activity against Pseudomonas aeruginosa ATCC 9027 after 24 hrs by broth dilution method; format: functional; conditions: ATCC 9027, 24 h
[5] = system: Candida albicans; test: Antimicrobial activity against Candida albicans ATCC 10231 after 5 days by broth dilution method; format: functional, organism-based
[6] = system: Aspergillus niger; test: Antimicrobial activity against Aspergillus niger ATCC 16404 after 5 days by broth dilution method; format: functional, organism-based
[7] = system: Bacillus spizizenii; test: Antimicrobial activity against Bacillus spizizenii ATCC 6633 after 48 hrs by broth dilution method; format: functional; conditions: ATCC 6633, 48 h
[8] = system: Bacillus spizizenii; test: Antimicrobial activity against Bacillus spizizenii ATCC 6633 after 24 hrs by broth dilution method; format: functional
[9] = system: Staphylococcus epidermidis; test: Antimicrobial activity against Staphylococcus epidermidis ATCC 12228 after 24 hrs by broth dilution method; format: functional; conditions: ATCC 12228, 24 h
[10] = system: Aspergillus niger; test: Antimicrobial activity against Aspergillus niger ATCC 16404 after 24 hrs by broth dilution method; format: functional; conditions: ATCC 16404, 24 h
[11] = system: Staphylococcus epidermidis; test: Antimicrobial activity against Staphylococcus epidermidis ATCC 12228 after 48 hrs by broth dilution method; format: functional; conditions: ATCC 12228, 48 h
[12] = system: Staphylococcus aureus; test: Antimicrobial activity against Staphylococcus aureus ATCC 6538 after 48 hrs by broth dilution method; format: functional; conditions: ATCC 6538, 48 h
[13] = system: Escherichia coli; test: Antimicrobial activity against Escherichia coli ATCC 8739 after 48 hrs by broth dilution method; format: functional, organism-based
[14] = system: Staphylococcus aureus; test: Antimicrobial activity against Staphylococcus aureus ATCC 6538 after 24 hrs by broth dilution method; format: functional; conditions: ATCC 6538, 24 h
[15] = system: Escherichia coli; test: Antimicrobial activity against Escherichia coli ATCC 8739 after 24 hrs by broth dilution method; format: functional, organism-based
[16] = system: Homo sapiens; test: Antiinflammatory activity against reconstituted human epidermis model assessed as inhibition of IL1-alpha release measured after 15 mins of topical exposure followed by 42 hrs of recovery by ELISA; format: functional; conditions: Skin epidermis
[17] = system: Skin epidermis; test: Reduction of trans epithelial electrical resistance in human reconstituted epidermis after 15 mins of topical exposure followed by 42 hrs of recovery; format: functional
[18] = Cytotoxicity against human reconstituted epidermal cells at 17.1 mM after 15 mins of topical exposure followed by 42 hrs of recovery by MTT assay; format: cell-based; conditions: 0.25 h, 17100 µM

O=C(O)/C=C/c1ccc(O)c(O)c1 [CAFFEIC ACID] gave an EC50 [1] of 17.8 µM.
O=C(/C=C/c1ccc(O)c(O)c1)O[C@H](Cc1ccc(O)c(O)c1)C(=O)O [ROSMARINIC ACID] showed an MBC [2] of 4000 µg/mL (≈ 11.1 mM), an MIC [3] of 2000 µg/mL (≈ 5.55 mM) and an MIC [4] of 2000 µg/mL (≈ 5.55 mM). The MBC [5] was “inactive”, the EC50 [1] was 8 µM and the MBC [6] was “inactive”. The MBC [7] was 4000 µg/mL (≈ 11.1 mM), the MIC [8] was 4000 µg/mL (≈ 11.1 mM) and the MIC [9] was 120 µg/mL (≈ 0.333 mM). The MIC [10] was 4000 µg/mL (≈ 11.1 mM), the MBC [11] was 1000 µg/mL (≈ 2.78 mM) and the MBC [12] was 120 µg/mL (≈ 0.333 mM). The MBC [13] was “inactive”, the MIC [14] was 120 µg/mL (≈ 0.333 mM) and the MIC [15] was “inactive”.
In the case of C[C@@H]1CC[C@]2(C(=O)O)CC[C@]3(C)C(=CC[C@@H]4[C@@]5(C)C[C@@H](O)[C@H](O)[C@@](C)(COS(=O)(=O)O)[C@@H]5CC[C@]43C)[C@@H]2[C@]1(C)O, the Activity [16] is reported as “Non-toxic”, the Activity [1] is reported as “inactive” and the Activity [17] is reported as “Non-toxic”. The Activity [18] was > 75%.
In the case of C[C@@H]1CC[C@]2(C(=O)O[C@@H]3O[C@H](CO)[C@@H](O)[C@H](O)[C@H]3O)CC[C@]3(C)C(=CC[C@@H]4[C@@]5(C)C[C@@H](O)[C@H](O)[C@@](C)(COS(=O)(=O)O)[C@@H]5CC[C@]43C)[C@@H]2[C@]1(C)O, the Activity [1] is reported as “inactive”.
